According to PMC7849180 (Frontiers in Pharmacology, 2020):

Assays:
IKKβ = IKKβ (Homo sapiens, UniProt O14920); assay: Phosphorylation of IκBα by IKKβ; format: biochemical
[1] = Food effect on plasma pharmacokinetics, 200 mg crossover; format: in vivo, human; settings: for AUC0-t, geometric mean / AUC0-∞, geometric mean / Cmax, geometric mean / median Tmax: 200 mg
Description: For MAD cohorts, blood samples were collected at 0, 0.25, 0.5, 1, 1.5, 2, 3, 4, 5, 6, 8 and 12 h on day 1; 0 h on day 2, 3, 4, 6 and 7; 0, 0.25, 0.5, 1, 1.5, 2, 3, 4, 5, 6, 8, 12, 24, 36 and 48 h on day 10. In food effect cohort, blood samples were collected at 0, 0.25, 0.5, 1, 1.5, 2, 3, 4, 5, 6, 8, 12, 24, 36, 48, 72, 96 and 120 h in period one of group A; 0, 0.25, 0.5, 1, 1.5, 2, 3, 4, 5, 6, 8, 12, 24, 36 and 48 h in period two of group A and the two periods of group B. Blood samples were centrifuged at 3,000 rpm for 10 min at 2–8 °C and stored at -80 °C until liquid chromatography-mass spectrophotometry (LC-MS/MS) analysis. Urine and feces samples were collected in period one of group A of food effect cohort with the intervals 0, 0–6, 6–12, 12–24, 24–48, 48–72, 72–96, 96–120 and 0–120 h, respectively. […]
Statistical analysis was performed using SAS software, version 9.4 (SAS Institute Inc., United States). Descriptive statistics were used to summarize continuous variables as cases, means with standard deviations, medians, maximum and minimum. For categorical variables, frequencies and percentages were used. A regression power model, relating log-transformed Cmax and AUC parameters to log-transformed dose, was used to investigate dose proportionality. Food effect pharmacokinetic parameters were analyzed using the mixed effect model with period, sequence and treatment as fixed effects and subjects as the random effect. Logarithmic transformation of Cmax, AUC0-∞ and AUClast were performed to calculate the 90% confidence intervals (CIs) of the geometric mean ratio (GMR) between fasting and fed administration. If the calculated 90% CI values fall entirely within the range of 0.80–1.25, it is indicative of no significant food effect.

CYP1A2 = format: in vitro ADME, human; settings: 0.10, 1.00, 10.0 μM
From the text: Suzhou Zelgen Biopharmaceuticals Co., Ltd. Jaktinib Hydrochloride Tablets Chemical Drug Class 1 New Drug […]
metabolite formed in human liver microsomes was the morpholine ring-opening metabolite M3. The enzyme phenotype involved in the oxidation of ZG0128 to form M3 was identified with reaction phenotyping assay using chemical inhibition and human recombinant CYP450 enzymes.
Using UPLC/Q-TOF MS, the amount of ZG0128 and primary alcohol metabolite formed by morpholine ring-opening (M3) in human liver microsomes and different incubation systems for human recombinant enzymes, including CYP1A2, CYP2A6, […]
inhibitor 1-ABT, CYP3A inhibitor ketoconazole, and CYP2C8 inhibitor quercetin can […]
for human liver microsomes and inhibit the formation of M3. […]
primary enzyme that produced M3 while CYP1A2, 2D6 and 2C9 were also partly involved. Results from the reaction phenotyping assay using chemical inhibition and […]
microsomes was a morpholine ring-opening metabolite catalyzed mainly by CYP3A4 […]
Inhibition and Induction of ZG0128 on CYP-P450s
The inhibition and induction potentials of ZG0128 on CYP-P450s were evaluated using mixed human liver microsomes and human primary hepatocytes as the in vitro […]
hydroxylation), and CYP3A4 (testosterone 6β-hydroxylation), with an IC50 greater than […]. […]

IKKβ, sequence (O14920 whole entry, species assumed): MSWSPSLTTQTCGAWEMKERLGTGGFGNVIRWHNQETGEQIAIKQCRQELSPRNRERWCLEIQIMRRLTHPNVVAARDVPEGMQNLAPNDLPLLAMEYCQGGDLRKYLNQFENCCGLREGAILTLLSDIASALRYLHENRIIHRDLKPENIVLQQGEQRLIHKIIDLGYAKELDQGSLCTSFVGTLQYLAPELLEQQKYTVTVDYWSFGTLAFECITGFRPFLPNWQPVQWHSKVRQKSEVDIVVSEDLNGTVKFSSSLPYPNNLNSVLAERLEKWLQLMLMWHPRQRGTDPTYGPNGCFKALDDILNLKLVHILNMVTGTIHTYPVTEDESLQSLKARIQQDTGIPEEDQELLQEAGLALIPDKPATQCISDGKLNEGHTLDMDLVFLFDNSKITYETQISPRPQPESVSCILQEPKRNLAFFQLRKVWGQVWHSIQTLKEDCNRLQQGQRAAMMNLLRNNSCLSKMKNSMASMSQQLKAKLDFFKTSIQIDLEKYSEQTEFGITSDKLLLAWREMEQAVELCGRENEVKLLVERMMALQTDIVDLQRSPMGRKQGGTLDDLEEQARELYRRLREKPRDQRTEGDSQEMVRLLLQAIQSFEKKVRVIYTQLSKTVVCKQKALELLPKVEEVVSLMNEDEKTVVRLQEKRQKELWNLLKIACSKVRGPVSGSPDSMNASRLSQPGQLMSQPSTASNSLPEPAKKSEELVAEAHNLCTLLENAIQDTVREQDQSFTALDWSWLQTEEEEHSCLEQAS

| Compound | effect on phosphorylation of IκBα by IKKβ (IKKβ) | Cmax, geometric mean (CV%) ([1]; 200 mg fasted) | Tmax, median (min–max) ([1]; 200 mg fasted) | Cmax, geometric mean (CV%) ([1]; 200 mg fed) | Tmax, median (min–max) ([1]; 200 mg fed) | AUC0-t, geometric mean ([1]; fasted (n = 12)) | AUC0-∞, geometric mean ([1]; fasted (n = 12)) | Cmax, geometric mean ([1]; fasted (n = 12)) | median Tmax ([1]; fasted state) | AUC0-t, geometric mean ([1]; fed (n = 12)) | AUC0-∞, geometric mean ([1]; fed (n = 12)) | Cmax, geometric mean ([1]; fed (n = 12)) | median Tmax ([1]; fed state) | AUC0-t, geometric mean ratio ([1]; fed vs fasted) | AUC0-∞, geometric mean ratio ([1]; fed vs fasted) | Cmax, geometric mean ratio ([1]; fed vs fasted) | in vitro induction (CYP1A2) |
| --- | --- | --- | --- | --- | --- | --- | --- | --- | --- | --- | --- | --- | --- | --- | --- | --- | --- |
| Jaktinib | no significant effects | 237.98 (69.0) ng/ml | 2.00 (0.50–5.00) h | 542.35 (32.1) ng/ml | 4.00 (3.00–5.00) h | 1569.48 ng·h/mL | 1616.35 ng·h/mL | 237.98 ng/mL | 2 h | 4174.9 ng·h/mL | 4207.38 ng·h/mL | 542.35 ng/mL | 4 h | 2.66 | 2.60 | 2.28 | – |
| Cl.Cl.O.[2H]C1([2H])COCC([2H])([2H])N1c1ccc(Nc2nccc(-c3ccc(C(=O)NCC#N)cc3)n2)cc1 [ZG0128, Jaktinib Dihydrochloride Monohydrate] | – | – | – | – | – | – | – | – | – | – | – | – | – | – | – | – | no in vitro induction |
